Reference: article PMC5485613, “A novel TRPM8 agonist relieves dry eye discomfort” (BMC Ophthalmology, 2017)

Tests used:
TRPM8-sensory neurons = assay: Calcium imaging of primary sensory neurons from Trpm8 EGFP mice; format: cell-based, mouse; settings: C3 10 μM
Description: Calcium imaging was used to test the C3 selectivity on TRPM8-sensory neurons. Trpm8 ^+/EGFPmice were gifted by Dr. Yu-Qing Cao, Pain Center of Washington University in Saint Louis, School of Medicine, Missouri. Trigeminal ganglions and dorsal root ganglions from 4 to 5 weeks old mice were collected after CO2 euthanasia and digested for 30–40 min before plated on cover slips (8 mm), which were coated with poly-D-lysine for 40 min before use. Cover slips were gently washed with culture media to remove myelin after incubating for 35–40 min. Calcium imaging was done after incubation overnight at 37 °C, 5% CO2. Neurons were loaded with Fura-2 AM™ (Molecular Probes) for 30 min at room temperature. After washing and recovery, neurons were imaged at 340 and 380 nm excitation to detect free calcium influx. An increase of 50% of the 340/380 ratio was considered as the response threshold which were measured under blinded conditions for genotypes. Compounds were applied to the bath and calcium response was acquired by an inverted Nikon fluorescence microscope with a CoolSnap HQ2 CCD camera (Photometrics, Tucson, AZ). Data was quantified offline with the Nikon-NIS program.

mouse TRPV1 = molecular target: T1, mouse TRPV1 (Mus musculus, UniProt Q704Y3); assay: TRPV1 calcium imaging (Fura-2) in transfected KNRK cells; format: cell-based; settings: 10 μM
T1 construct: expressed in transfected cells; host or cells: KNRK cells (rat kidney), transiently transfected
T1 sequence (Q704Y3 whole entry): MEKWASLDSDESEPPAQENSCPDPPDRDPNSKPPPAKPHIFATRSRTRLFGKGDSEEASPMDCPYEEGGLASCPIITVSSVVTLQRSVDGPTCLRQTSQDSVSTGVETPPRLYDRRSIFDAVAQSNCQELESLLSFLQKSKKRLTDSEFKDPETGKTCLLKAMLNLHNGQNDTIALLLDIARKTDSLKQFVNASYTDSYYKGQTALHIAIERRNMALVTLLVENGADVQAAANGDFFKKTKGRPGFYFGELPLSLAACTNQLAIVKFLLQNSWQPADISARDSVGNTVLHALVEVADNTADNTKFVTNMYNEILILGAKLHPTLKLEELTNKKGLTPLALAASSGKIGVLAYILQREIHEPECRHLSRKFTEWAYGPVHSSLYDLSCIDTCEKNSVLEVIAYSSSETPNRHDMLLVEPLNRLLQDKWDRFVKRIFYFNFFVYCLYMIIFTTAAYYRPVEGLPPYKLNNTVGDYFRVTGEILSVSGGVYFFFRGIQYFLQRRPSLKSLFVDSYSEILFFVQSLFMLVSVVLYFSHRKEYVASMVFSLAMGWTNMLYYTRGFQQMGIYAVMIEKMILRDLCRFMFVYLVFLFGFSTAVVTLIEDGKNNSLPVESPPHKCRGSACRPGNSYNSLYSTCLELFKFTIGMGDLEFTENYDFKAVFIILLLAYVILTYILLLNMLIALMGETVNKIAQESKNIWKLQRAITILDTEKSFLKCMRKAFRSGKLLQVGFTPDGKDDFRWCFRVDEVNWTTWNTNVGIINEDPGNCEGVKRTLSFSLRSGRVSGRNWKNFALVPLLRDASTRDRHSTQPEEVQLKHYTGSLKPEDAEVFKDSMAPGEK
Description: To further examine the specificity of C3, tests were conducted on TRPV1 channels and TRPA1 channels expressed in Kirsten murine sarcoma virus transformed rat kidney (KNRK) cells. KNRK cells were cultured as a monolayer and maintained in Dulbeccos’s Modified Eagles’s Medium (Life Technologies), supplemented with 10% fetal bovine serum (Life Technologies), 100 units/mL penicillin and 100 μg/mL streptomycin, in an incubator of 5% CO2 at 37 °C. After suspension, the cells were coated on cover slips for 12 h, then transiently transfected with cDNA (pc3.1 DNA) for TRPV1 or TRPA1 with Lipofectamine 2000 (Invitrogen) for 24 h, and loaded with Fura-2 AM™ (Molecular Probes) for 40 min at 37 °C. After washing and recovery, KNRK cells were imaged at 340 and 380 nm excitation to detect free calcium influx. An increase of 50% of the 340/380 ratio was considered as the response threshold which were measured under masked conditions for plasmids. Compounds were applied to the bath and calcium response was acquired by an inverted Nikon fluorescence microscope with a CoolSnap HQ2 CCD camera (Photometrics, Tucson, AZ). Data were quantified offline with the Nikon-NIS program.

[1] = tested on: patients with dry eye disease; assay: Four times daily application for 2 weeks in patients with dry eye disease (Expt 2); format: in vivo, human
Description: Initially, a total of 60 additional patients fulfilling the inclusion criteria were assessed for eligibility, and 54 subjects who decided to participate were randomized into two groups as described above (Additional file 1: Figure S4). Vehicle or C3 were prepared as 1 mL solutions placed into unit applicators called Swabdose™ made by Unicep Corporation, Sandpoint, ID. These applicators are singly encased in a polypropylene container with a 6.35 mm cotton tip attached to a 74.6 mm polystyrene handle. USP purified water (placebo units) or a C3 sample (2 mg/mL in USP purified water) was prepared onsite under clean conditions and packaged with automated equipment. Each subject was given 14 Swabdoses for the 2-week study period. The subjects were instructed to apply the cotton-tipped applicator to the edges of the closed eyelids once every 6 h per day for 14 days. The applicators were pre-weighed and the subjects were told to use to same applicator for each day and to save the applicator in a plastic bag at the end of the day. The applicators were collected, weighed and compared with the weight before application. TBUT, basal tear secretion, and corneal staining assessed by KEP scores were analyzed before and at 1 and 2 weeks thereafter. For TBUT, basal tear secretion, and KEP only the results from the right eye were scored for data analysis.
Three questionnaires were used at each patient visit to analyze the effects of treatment on ocular discomfort. Firstly, DED symptoms were assessed using a visual analogue scale (VAS) score of 1 to 10. Next, symptoms were assessed using the ocular surface disease index (OSDI) questionnaire, consisting of 12 questions graded on a scale from 0 to 4 (0 = “none of the time” and 4 = “all the time”). An overall score was calculated (0–100) by using the following equation: (25 × (sum of answered question scores/number of questions answered)). Participants were also asked to grade five symptoms associated with the CVS. The symptoms of fatigue, burning, dryness, blurred vision, and dullness of vision was ranked on a scale of 0 to 6 (0 = “no symptom”, 6 = “very severe symptom”) and the average aggregate score for the two test groups are reported.

volunteers = assay: C3 eye drop instilled in volunteers, sensation scores; format: in vivo, human
Description: Eye drops represent ~90% of formulations used for treatment of anterior eye disorders. […] Subjects were asked to rate discomfort, blurring, and coolness sensations, on a scale of 0 (no effect) to 5 (intense effect) at 5, 10, and 15 min after instillation. […] Cooling sensation scores were significant at 5 min (2.6 vs 0.2), but there were not much cooling at 10 (0.8 vs 0.2) or 15 min (0.2 vs 0.2). It appeared as if eye drops are a relatively inefficient method of C3 delivery because the drop splashes in a confined space and the time for the active ingredient to be retained on target receptors is short. Furthermore, the initial period of discomfort is not desirable. To determine if there were other TRPM8 targets on the orbit, we examined the mouse eye with a selective TRPM8-GFP reporter line.

[2] = 2 mg/mL four times a day, versus vehicle
[3] = 2 mg/mL four times a day, week 1 or week 2, n = 20

**Q.** Which “calcium entry in TRPM8 EGFP/+ sensory neurons” value (TRPM8-sensory neurons) does the source give for `CCCCCCCCCP(=O)(C(C)C)C(C)C` [C3, 1-diisopropylphosphorylnonane] here?
**A.** Its value is “activates calcium entry”.

**Q.** And the “activation of TRPV1 (calcium response)” value (mouse TRPV1)?
**A.** Its value is “inactive”.

**Q.** What about the “CVS type of symptoms” value ([1]; 2 mg/mL four times a day, 1 and 2 weeks) of the same molecule?
**A.** Its value is “significantly improved”.

**Q.** And the basal tear secretion ([1]; 2 mg/mL four times a day, 1 and 2 weeks, versus baseline and vehicle)?
**A.** Its basal tear secretion is “significantly increased”.

**Q.** What about the “severity of symptoms by VAS score” value [1, 2] of the same molecule?
**A.** Its value is “significantly improved at week 2 but not at week 1”.

**Q.** And the “total OSDI score” value [1, 2]?
**A.** The value was “significantly improved at week 2 but not at week 1”.

**Q.** And the KEP [1, 3]?
**A.** The KEP was “no significant changes”.

**Q.** And the TBUT [1, 3]?
**A.** The TBUT was “no significant changes”.

**Q.** And the “adverse effect (ocular pain, irritation, discomfort)” value ([1]; 2 weeks study)?
**A.** Its value is “No significant adverse effect”.

**Q.** What about the blurring (volunteers; 0.1 mg/mL eye drop, 5, 10 and 15 min) of the same molecule?
**A.** The blurring was “did not cause significant blurring”.

**Q.** What about the “Cooling sensation score (0-5)” value (volunteers; 0.1 mg/mL eye drop, 5 min) of the same molecule?
**A.** The value was 2.6.

**Q.** And the “Cooling sensation score (0-5)” value (volunteers; 0.1 mg/mL eye drop, 10 min)?
**A.** The value was 0.8.

**Q.** What about the “Cooling sensation score (0-5)” value (volunteers; 0.1 mg/mL eye drop, 15 min) of the same molecule?
**A.** The value was 0.2.

**Q.** And the “duration of cooling after eye drop” value (volunteers; 0.1 mg/mL eye drop, volume printed as 70 μL)?
**A.** The value was no more than 10 min.

**Q.** And the discomfort (volunteers; 0.1 mg/mL, 50 μL eye drop, 10 or 15 min)?
**A.** The discomfort was “not at 10 or 15 min”.

**Q.** And the “discomfort score (0-5)” value (volunteers; 0.1 mg/mL, 50 μL eye drop, 5 min, n = 5)?
**A.** Its value is 1.6.
